# Measurements as given in US20060172920A1, “Oxidised lipids as reversal agents for boronic acid drugs” (priority 2004, published 2006).
# “And” between values parts separate entries of the source, which are not always exact repeats. Equal entries are not always repeated.
# Assays:
# thrombin [1] = target: T1, thrombin (Homo sapiens, UniProt P00734); experiment: Thrombin assay, reversal of TRI 50c inhibition (Example 10, Methods A-C); assay type: biochemical; conditions: final concentration; TRI 50c 1 μM; Method A
# Method: 50 μl thrombin (33.3 ng/ml in assay buffer) and 20 μl vehicle or compound solution were added to 110 μl assay buffer (100 mM Na orthophosphate (80% Na2HPO4 and 20% NaH2PO4), 200 mM NaCl, 0.5% PEG 6000, 0.02% Na azide, pH 7.5) and incubated for 5 minutes at 37° C. […] Results are expressed as percentage change in thrombin activity. […] After the incubation period 100 μl of activated HDL (Method B) was added and further incubated for 30 minutes at 37° C.
# human thrombin [2] = experiment: Quenching of TRI-50b neutralising activity by N-acetyl cysteine (Method B); assay type: biochemical
# Method: Method B Method as A except that the measurement was made at a single time point. The incubation period was 20 minutes with plasma samples and 1 minute with the purified lipoproteins. Results are given as the overall percentage activity relative to a control without inhibitor. If lipid peroxides are involved in the inactivation then, the addition of n-acetyl-cysteine (NAC), a powerful anti-oxidant should reduce the neutralising activity. (NAC has been used historically to mop up reactive oxygen species). […] Plasma (1 in 10 dilution in buffer A) was incubated with 1.0 mM cupric sulphate for 4 hours. Increasing concentrations of n-acetyl cysteine were then added and also to BLp (1 in 10 dilution in buffer A). The neutralisation of TRI-50b was measured by Method B (Materials and Methods). Plasma, ▪-▪, BLp ▴-▴. A reduction in neutralising activity, to approximately base-line levels was observed when increasing concentrations of NAC were added to plasma or the bovine lipoprotein fraction (FIG. 14).
# thrombin [3] = target: T1, thrombin; experiment: Ki of hydrogen peroxide-treated TRI-50b against thrombin (Dixon plots); assay type: biochemical; conditions: after hydrogen peroxide (3.0%) 2 hours at RT
# Method: The loss of activity of boropeptides when contacted with peroxide compounds was apparently due to the removal of the boronic acid moiety (as was observed upon treatment of TRI-50b with hydrogen peroxide). The boron provides at least four orders of binding energy to the peptide sequence because of the formation of a transition state-like adduct with the active site serine. […] 1 volume TRI-50b (15 mg/ml in DMSO) was added slowly to 10 volumes of hydrogen peroxide (3.0%) for 2 hours at RT. The Ki for inhibition of thrombin activity was carried out using Dixon plots. The initial rate of cleavage of S2302 (a chromogenic substrate for thrombin) by thrombin (28 nM) was determined at the different concentrations of substrate in the presence of varying concentrations of the oxidised inhibitor. This loss of binding energy was observed as a 20,000 fold increase in the Ki against thrombin (FIG. 15).
# thrombin clotting time = experiment: Example 11: TRI 50b and lipoprotein antidote in rat, thrombin clotting time; assay type: in vivo
# Method: The efficacy of a new specific antidote towards the dynamic activity of TRI 50b was evaluated in a rat study (n=15) (Male and Female rats circa 250-300 g).
# Male and female rats were anaesthetised and arterial blood sampling lines placed.
# The antidote was prepared from a bovine lipoprotein following oxidation, ultrafiltration and Concentration.
# The study was divided into three groups as follows: • TRI 50b alone at a dose of 2.0 mg/kg intravenously (0.8 ml/kg: Prepared in 25% ethanol/saline) • Antidote alone (5.0 ml/kg) • TRI 50b followed by administration of the antidote.
# Blood samples were taken from an arterial line into 3.8% tri-sodium citrate and plasma prepared by centrifugation.
# Dynamic activity of TRI 50b was assessed in plasma samples by measurement of the thrombin clotting time.
# 200 ml of Lipocell (Lipoprotein fraction, Intergen catalogue number 4505-01, Lot number WT18002) was incubated at 37° C. for 37 hours. The Lipocell was then concentrated by centrifugation. The sample contained in an Amicon Centriprep YM-3 centrifugal concentrator was spun at 3800 rpm in an IEC Centra 3C centrifuge for 30 minutes at RT. The concentrated samples were pooled and centrifuged twice more to a final volume of around 50 mls. The sample was stored at 4° C.
# normal human plasma = experiment: Ecarin clotting time in human plasma (Example 10, Method D); assay type: biochemical; conditions: 1-10 μM
# Method: (§1) Ecarin was obtained from HTI (USA) whilst the normal human plasma was purchased from Precision Biologics via Alpha Laboratories (UK). Rat plasma was purchased from Harlan laboratories, UK.
# (§2) TRI 50c was diluted in an assay buffer (100 mM sodium orthophoshate, 200 mM NaCl, 0.5% PEG 6000 and 0.02% sodium azide, pH 7.5) and incubated with normal human pooled or rat plasma (80% final) for 5 minutes at 37° C. Ecarin (100 μg/ml final) was added to the incubating solution. The clotting times were determined using a plate reader (Versamax, Molecular Devices Corporation) at 405 nm for up to 10 minutes at 37° C.
# rat plasma = experiment: Ecarin clotting time in rat plasma (Example 10, Method D); assay type: biochemical; conditions: 10 μM; fresh rat plasma
# Method: as §1, §2
# human thrombin [4] = experiment: Total neutralising capacity towards peptide boronates (Method C); assay type: biochemical; conditions: for maximum number of boronate molecules destroyed by BLp: BLp in the absence of Cu2+
# Method: Method C. 20 μl of TRI-50b dissolved in DMSO was added to 313 μl of bovine lipoprotein (diluted 1 in 10 in Buffer A, see method A above) to achieve a range of final concentrations of 164, 333, 490, 660, 820, 990, 1150, 1320 and 1480 μM, respectively. Samples were removed at timed intervals and diluted 1 in 20 with buffer A. The concentration of TRI-50b in 25 μl of this mixture was determined as described in Method A. Residual TRI-50b was determined from a standards curve. The change in concentration of TRI-50b was calculated by subtracting the residual concentration from the starting concentration.
# BLp was incubated at 37° C. in the presence or absence of 1 mM cupric sulphate, Samples were taken at timed intervals and added to varying concentrations of TRI-50b up to 1.5 mM. The residual TRI-50 b was measured by Method C (Materials and Methods). —Cu^2+ […]-[…]; +Cu^2+ ▴-▴. In FIG. 10 are shown the results of an experiment in which the total mass of neutralising activity of bovine lipoprotein was determined. Increasing concentrations of TRI-50b up to 1.5 mM were added to a ten-fold dilution of the BLp fraction (OD280 nm=4.0). A rapid neutralisation of TRI-50b was observed reaching a maximum beyond which the neutralising capacity was totally exhausted. In the absence of Cu^2+, the maximum mass of TRI-50b that was neutralised was equivalent to 0.8 mM. The concentration of BLp in the mixture was 1.9 g/l or 0.0038 mM. Thus around 200 moles of TRI-50b were neutralised per mole of lipoprotein. In the presence of Cu^2+, the maximum mass of TRI-50b that was neutralised was higher and equivalent to 320 moles/mole.
# A similar experiment was carried out with dilutions of plasma (FIG. 11). […] Plasma at varying dilutions was incubated at 37° C. in the presence of 1 mM cupric sulphate. Samples were taken at timed intervals and added to varying concentrations of TRI-50b up to 1.5 mM. The residual TRI-50 b was measured by Method C (Materials and Methods). 1 in 3, […]-[…]; 1 in 6, ▴-▴; 1 in 12, ▾-▾; 1 in 3 without Cu^2+, ▪-▪. […]
# The low-density lipoprotein particle contains a single molecule of a 500 kDa protein and 1500 molecules of esterified cholesterol. […] Samples were taken at timed intervals and the residual TRI-50b concentration was determined by Method C (Materials and Methods).
# In FIG. 13 are shown the observations made upon the neutralisation of a number of other peptide boronates by BLp added in the absence of Cu^2+, namely TRI-30, Z-D-Dpa-Pro-BoroMbg-Opin, TRI-26, Z-D-βNal-Pro-BoroIrg-Opin; TRI-142, Moc-D,L-Dpa-Pro-BoroMpg-Opinac. […] The residual concentration of boronate was determined by Method C (Materials and Methods).
# [5] = PBS pH 7.2; cited from earlier work
# [6] = stored at −80° C.; cited from earlier work
compound,measurement,setting,value
"O=S(=O)([O-])[O-].[Cu+2] [CuSO4, copper sulphate]",concentration that began to reduce the inhibitory activity of TRI 50c,thrombin [1],greater than 50 μM
"CC(=O)NC(CS)C(=O)O (stereo not shown) [NAC, n-acetyl-cysteine]",IC50,human thrombin [2]; BLp (1 in 10 dilution),~2000 µM
same,IC50,"human thrombin [2]; oxidised plasma (1 in 10, 1.0 mM cupric sulphate 4 hours)",~100 µM
"COCCC[C@H](NC(=O)[C@@H]1CCCN1C(=O)[C@@H](Cc1ccccc1)NC(=O)OCc1ccccc1)B1OC(C)(C)C(C)(C)O1 [TRI 50b, Cbz-(R)-Phe-Pro-BoroMpg-OPinacol]",increase in the Ki against thrombin,thrombin [3],"20,000 fold"
same,elevation of thrombin clotting time over base line,"thrombin clotting time; 2.0 mg/kg intravenously, two minutes post dose",5.6 times base line
same,thrombin clotting time (TT),"thrombin clotting time; 2.0 mg/kg iv, 30 minutes post dose",36 s
same,time for thrombin clotting time to return to base line,"thrombin clotting time; 2.0 mg/kg iv, post dose",≤ 60 min
same,thrombin clotting time,"thrombin clotting time; 2.0 mg/kg iv, two minutes post dose",128 s and 138 s
"COCCC[C@H](NC(=O)[C@@H]1CCCN1C(=O)[C@@H](Cc1ccccc1)NC(=O)OCc1ccccc1)B(O)O [TRI 50c, Cbz-(R)-Phe-(S)-Pro-(R)-Mpg-B(OH)2]",prolongation of ECT,normal human plasma,concentration dependent prolongation
same,ECT,rat plasma,approximately 215 seconds
"Moc-D,L-Dpa-Pro-BoroMpg-Opinac [TRI-142]",maximum number of boronate molecules destroyed by BLp,human thrombin [4],around 65 moles/mole
Z-D-Dpa-Pro-BoroMbg-Opin [TRI-30],maximum number of boronate molecules destroyed by BLp,human thrombin [4],around 80 moles/mole
Z-D-βNal-Pro-BoroIrg-Opin [TRI-26],maximum number of boronate molecules destroyed by BLp,human thrombin [4],around 65 moles/mole
cholesteryl linoleate hydroperoxide,equivalence of TRI-50b neutralisation,human thrombin [4]; 44 μM hydroperoxide mixed with TRI-50b,approximately 1 mole/mole
same,solubility in aqueous buffers,[5],< 20 µg/mL
same,storage stability,[6],stable for at least six months
